Measurements: ChEMBL document CHEMBL5223142, “Identification of potent and selective inhibitors of PKR via virtual screening and traditional design” (Bioorg Med Chem Lett, 2023)

Key:
[1] = target: T1, Interferon-induced, double-stranded RNA-activated protein kinase (Homo sapiens, UniProt P19525); test: Inhibition of PKR (unknown origin)
[2] = target: T1, Interferon-induced, double-stranded RNA-activated protein kinase; test: Inhibition of GST tagged human PKR incubated for 10 mins in presence of ATP by Kinase Glo luminescence assay

T1 sequence (P19525 whole entry): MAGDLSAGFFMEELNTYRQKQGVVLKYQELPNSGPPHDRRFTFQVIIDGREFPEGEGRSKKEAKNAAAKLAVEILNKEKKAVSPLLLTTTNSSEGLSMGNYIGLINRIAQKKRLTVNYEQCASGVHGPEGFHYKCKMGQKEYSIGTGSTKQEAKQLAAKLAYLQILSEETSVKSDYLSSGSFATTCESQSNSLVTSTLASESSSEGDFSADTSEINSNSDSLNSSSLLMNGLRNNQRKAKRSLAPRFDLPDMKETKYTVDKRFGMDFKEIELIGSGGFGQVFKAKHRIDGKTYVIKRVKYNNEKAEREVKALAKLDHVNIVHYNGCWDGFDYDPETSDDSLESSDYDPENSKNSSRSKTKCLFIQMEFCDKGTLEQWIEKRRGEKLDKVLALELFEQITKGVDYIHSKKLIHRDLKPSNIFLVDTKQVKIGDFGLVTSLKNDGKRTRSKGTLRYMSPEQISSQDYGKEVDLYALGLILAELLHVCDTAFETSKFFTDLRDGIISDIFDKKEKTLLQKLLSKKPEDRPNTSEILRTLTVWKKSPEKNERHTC

Row | Compound | IC50 [1] | further results
1 | Nc1ncc(-c2nnn(CCCO)n2)cc1-c1cc2cc(NC(=O)Nc3ccc(Cl)c(C(F)(F)F)c3)ccc2o1 | – | IC50 [2]: 475 nM
2 | CC(=O)Cn1cc(-c2cnc(N)c3c(-c4ccc(NC(=O)Nc5cccc(C)c5)cc4)csc23)cn1 | 306 nM | –
3 | CCc1ccc(OC(F)(F)F)cc1CC(=O)N1CCc2cc(-c3cn(CC)c4ncnc(N)c34)ccc21 | – | EC50 [1]: 37 nM
4 | O=C(Nc1cc(-c2ccccc2)[nH]n1)c1ccc(N2CCNC2=O)cc1 | 3880 nM | –
5 | CCc1ccc(OC(F)(F)F)cc1CC(=O)N1CCc2cc(-c3nn(CC)c4ncnc(N)c34)ccc21 | – | EC50 [1]: 95 nM

Now from value to compound, other results behind:

Row | IC50 [1] | Compound | further results
6 | 116 nM | CCn1cc(-c2ccc3c(c2)CCN3C(=O)Cc2cccc(OC(F)(F)F)c2)c2c(N)ncnc21 | –
7 | 364 nM | COCCO[C@H]1CC[C@H](n2nc(-c3ccc(Nc4nc5cc(Cl)cc(F)c5o4)cc3)c3c(N)ncnc32)CC1 | –
